Assay results from patent publication US20260152487A1 (Sitryx Therapeutics Limited, priority 2021, published 2026).

Target: T1, recombinant human PKM2 (Homo sapiens, UniProt P14618)
T1 construct: His (N); purchased R&D Systems
Assay: Human PKM2 activation assay (Kinase-Glo Plus luminescent detection of generated ATP)
Format: biochemical
Conditions: for Emax: percentage activation normalised to DMSO vehicle (LOW) and 5 μM TEPP-46 (HIGH), read-out: hPKM2 Emax; for EC50: recombinant human PKM2 activation, 4-parameter logistic fit, read-out: hPKM2 EC50
In short: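 N-His-tagged recombinant hPKM2 ([…]) with PEP and ADP was incubated with compound for 60 min at 26 °C, shaking, in 50 mM imidazole, 50 mM KCl, 7 mM MgCl2, 0.01% Tween20, 0.05% BSA, pH 7.2. ATP produced was read by Kinase-Glo Plus luminescence after 15 min.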

T1 sequence (P14618 2-531 limits assumed): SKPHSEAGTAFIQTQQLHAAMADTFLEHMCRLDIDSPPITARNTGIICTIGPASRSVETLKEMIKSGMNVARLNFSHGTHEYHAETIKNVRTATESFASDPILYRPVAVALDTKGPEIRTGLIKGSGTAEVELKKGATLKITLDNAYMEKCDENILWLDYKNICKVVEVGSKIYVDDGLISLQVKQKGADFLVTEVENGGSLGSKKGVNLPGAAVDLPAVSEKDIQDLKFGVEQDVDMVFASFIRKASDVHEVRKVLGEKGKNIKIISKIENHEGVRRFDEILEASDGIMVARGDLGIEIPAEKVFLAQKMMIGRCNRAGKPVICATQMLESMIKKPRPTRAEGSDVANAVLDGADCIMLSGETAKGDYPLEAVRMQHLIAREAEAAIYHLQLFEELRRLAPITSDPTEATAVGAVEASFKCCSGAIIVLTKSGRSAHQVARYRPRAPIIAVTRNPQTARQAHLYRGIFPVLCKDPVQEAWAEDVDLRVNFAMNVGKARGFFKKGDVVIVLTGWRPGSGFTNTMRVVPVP

Row | Structure (SMILES) | Emax [%] | EC50 [nM]
1 | Cn1cc(Cl)c(Cn2ncc3cc(S(=O)(=O)c4cn[nH]c4)ccc3c2=O)n1 [Example 308] | 95.5 | 145
2 | COc1ccc(Cn2ncc3cc(S(=O)(=O)c4ccccc4F)ccc3c2=O)cn1 [Example 162, 6-(2-fluorophenylsulfonyl)-2-((6-methoxypyridin-3-yl)methyl)phthalazin-1(2H)-one] | 99.5 | 83.4
3 | Cn1ccc2cc(S(=O)(=O)c3ccc4c(=O)n(Cc5cc[nH]n5)ncc4c3)ccc21 [Example 231, 2-((1H-pyrazol-3-yl)methyl)-6-((1-methyl-1H-indol-5-yl)sulfonyl)phthalazin-1(2H)-one] | 111 | 93.5
4 | Cn1ccc(Cn2ncc3cc(S(=O)(=O)c4ccc(OC(F)(F)F)cc4)ccc3c2=O)n1 [Example 218, 20((1-methyl-1H-pyrazol-3-yl)methyl)-6-((4-(trifluoromethoxy)phenyl)sulfonyl)phthalazin-1(2H)-one] | 116 | 192
5 | O=c1c2cc(NCCO)c(S(=O)(=O)c3ccccc3)cc2cnn1Cc1cccnc1O [Example 246, 7-((2-hydroxyethyl)amino)-2-((2-hydroxypyridin-3-yl)methyl)-6-(phenylsulfonyl)phthalazin-1(2H)-one] | 96.7 | 261
6 | COc1ccc(S(=O)(=O)c2ccc3c(=O)n(Cc4cc[nH]n4)ncc3c2)cn1 [Example 235, 2-((1H-pyrazol-3-yl)methyl)-6-((6-methoxypyridin-3-yl)sulfonyl)phthalazin-1(2H)-one] | 114 | 56.6
7 | O=c1c2ccc(S(=O)(=O)c3cccnc3)cc2cnn1Cc1cc[nH]n1 [Example 233, 2-((1H-pyrazol-3-yl)methyl)-6-(pyridin-3-ylsulfonyl)phthalazin-1(2H)-one] | 126 | 489
8 | COc1ccc(Cn2ncc3cc([S@](=N)(=O)c4ccccc4)ccc3c2=O)cn1 (single isomer, unassigned) [Example 132] | 95.1 | 289
9 | Cc1nc(S(=O)(=O)c2ccc3c(=O)n(Cc4ccn(C)n4)ncc3c2)cs1 [Example 214, 2-((1-methyl-1H-pyrazol-3-yl)methyl)-6-((2-methylthiazol-4-yl)sulfonyl)phthalazin-1(2H)-one] | 102 | 254
10 | NC(=O)c1nc(Cn2ncc3cc(S(=O)(=O)c4ccccc4)ccc3c2=O)cs1 [Example 93, 4-((1-oxo-6-(phenylsulfonyl)phthalazin-2(1H)-yl)methyl)thiazole-2-carboxamide] | 108 | 411
11 | Cn1ccc(Cn2ncc3cc(S(=O)(=O)c4ccc(OC(F)F)cc4)ccc3c2=O)n1 [Example 212, 6-((4-(difluoromethoxy)phenyl)sulfonyl)-2-((1-methyl-1H-pyrazol-3-yl)methyl)phthalazin-1(2H)-one] | 108 | 23.8
12 | COc1ccc(S(=O)(=O)c2ccc3c(=O)n(Cc4ccc(OC)nc4)ncc3c2)nc1 [Example 172, 6-(5-methoxypyridin-2-ylsulfonyl)-2-((6-methoxypyridin-3-yl)methyl)phthalazin-1(2H)-one] | 84.1 | 61.9
13 | Cc1coc2ccc(S(=O)(=O)c3ccc4c(=O)n(Cc5cc[nH]n5)ncc4c3)cc12 [Example 220, 2-((1H-pyrazol-3-yl)methyl)-6-((3-methylbenzofuran-5-yl)sulfonyl)phthalazin-1(2H)-one] | 84.7 | 67.7
14 | CC1Cc2cc(S(=O)(=O)c3ccc4c(=O)n(Cc5ccn(C)n5)ncc4c3)ccc2O1 (stereo not shown) [Example 213, 2-((1-methyl-1H-pyrazol-3-yl)methyl)-6-((2-methyl-2,3-dihydrobenzofuran-5-yl)sulfonyl)phthalazin-1(2H)-one] | 107 | 36.5
15 | COc1cnc(Cn2ncc3cc(S(=O)(=O)c4ccccc4)ccc3c2=O)cn1 [Example 87, 2-((5-methoxypyrazin-2-yl)methyl)-6-(phenylsulfonyl)phthalazin-1(2H)-one] | 85.8 | 475
16 | COc1ccc(Cn2ncc3cc(S(=O)(=O)c4cccc(C)n4)ccc3c2=O)cn1 [Example 169, 2-((6-methoxypyridin-3-yl)methyl)-6-(6-methylpyridin-2-ylsulfonyl)phthalazin-1(2H)-one] | 83 | 185
17 | COC(C)c1nc(S(=O)(=O)c2ccc3c(=O)n(Cc4ccc5occc5n4)ncc3c2)cs1 (stereo not shown) [Example 352] | 117 | 27.5

The remaining molecules from weak to strong by EC50, led by results:

Row | Emax [%] | EC50 [nM] | Structure (SMILES)
18 | 93.2 | 618 | COc1ncccc1Cn1ncc2cc(S(=O)(=O)c3ccccc3)ccc2c1=O [Example 88, 2-((2-methoxypyridin-3-yl)methyl)-6-(phenylsulfonyl)phthalazin-1(2H)-one]
19 | 72.4 | 501 | COc1ccc(Cn2ncc3cc(S(=O)(=O)c4cc(C)ccn4)ccc3c2=O)cn1 [Example 159, 2-((6-methoxypyridin-3-yl)methyl)-6-(4-methylpyridin-2-ylsulfonyl)phthalazin-1(2H)-one]
20 | 107 | 498 | O=c1c2ccc(S(=O)(=O)c3ccncc3)cc2cnn1Cc1cc[nH]n1 [Example 254, 2-((1H-pyrazol-3-yl)methyl)-6-(pyridin-4-ylsulfonyl)phthalazin-1(2H)-one]
21 | 104 | 456 | Cc1ccc(Cn2ncc3cc(S(=O)(=O)c4cn[nH]c4)ccc3c2=O)cn1 [Example 295, 6-((1H-pyrazol-4-yl)sulfonyl)-2-((6-methylpyridin-3-yl)methyl)phthalazin-1(2H)-one]
22 | 95.8 | 455 | COc1ccc(Cn2ncc3cc(S(=O)(=O)c4cccc5sc(C)nc45)ccc3c2=O)cn1 [Example 176, 2-((6-methoxypyridin-3-yl)methyl)-6-(2-methylbenzo[d]thiazol-4-ylsulfonyl)phthalazin-1(2H)-one]
23 | 105 | 238 | COc1ccc(Cn2ncc3cc(S(=O)(=O)c4cnn(CCO)c4)ccc3c2=O)nc1 [Example 311]
24 | 103 | 234 | N=S(=O)(c1ccccc1)c1ccc2c(=O)n(Cc3cccc(N)c3)ncc2c1 (stereo not shown) [Example 120, 2-(3-aminobenzyl)-6-(phenylsulfonimidoyl)phthalazin-1(2H)-one]
25 | 95.5 | 147 | COc1ccc(Cn2ncc3cc(S(=O)(=O)c4ccccc4)ccc3c2=O)c(C(N)=O)n1 [Example 14, 6-methoxy-3-((1-oxo-6-(phenylsulfonyl)phthalazin-2(1H)-yl)methyl)picolinamide]
26 | 77.3 | 135 | COc1ccc(Cn2ncc3cc(S(=O)(=O)c4ccccc4Cl)ccc3c2=O)cn1 [Example 163, 6-(2-chlorophenylsulfonyl)-2-((6-methoxypyridin-3-yl)methyl)phthalazin-1(2H)-one]
27 | 86.1 | 102 | O=c1c2ccc(S(=O)(=O)c3ccccc3)cc2cnn1Cc1ccsc1CO [Example 22, 2-((2-(hydroxymethyl)thiophen-3-yl)methyl)-6-(phenylsulfonyl)phthalazin-1(2H)-one]
28 | 100 | 77.1 | Cc1nc(S(=O)(=O)c2ccc3c(=O)n(Cc4cc5n(n4)CCO5)ncc3c2)cs1 [Example 357]
29 | 96.4 | 24.4 | Cc1c(Cl)c(Cn2ncc3cc(S(=O)(=O)c4cn[nH]c4)ccc3c2=O)nn1C [Example 338]
